SMILES strings stand for the structures. “And” between values parts separate entries of the source, which are not always exact repeats. Equal values may be shown once.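 Grown in 96-well plates, cells were treated for 48 hours with each compound at five concentrations. Insufficient inhibition: endpoint recorded as highest concentration tested. Here, GI50 denotes the concentration required for 50% inhibition of growth. TGI: total growth inhibition.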 A value given as a limit tells only on which side of the number the result lay.

Among the test systems are 786-0 renal; DLD-1 colon; DMS 114 small cell lung; DMS 273 small cell lung; HOP-18 NSCLC; KM20L2 colon; LXFL 529 NSCLC; M19-MEL melanoma; RXF-631 renal; SNB-78 CNS; P388 leukemia; P388/ADR leukemia; SN12K1 renal; XF 498 CNS.
Test in all cases: NCI tumour cell line growth inhibition, 48 h

As to `Cc1cc2sc(C)[n+](CCCOS(=O)(=O)[O-])c2cc1C`, the TGI in the test with 786-0 renal was > 100 µM.

In the case of `C/C=C(\C)C(=O)OC1C(C)=C2C(C1OC(=O)CCCC)C(C)(OC(C)=O)CC(OC(=O)CCCC)C1(O)C2OC(=O)C1(C)O` (stereo not drawn), the TGI in the test on 786-0 renal is > 60.1 µM.

Consider `O=C(O)NCC1CCCCC1` (tested in a mixture with another compound), for which the TGI in the test with 786-0 renal turned out to be 77.3 µM.

Take `OC(c1cc(-c2ccc(Cl)cc2)nc2ccccc12)C1CCCCN1` (stereo not drawn): in the test on 786-0 renal, the TGI is 3.92 µM.

Take `C1CSC(=[N+]2CC[N+](=C3SCCS3)CC2)S1`: the TGI in the test with 786-0 renal, with DLD-1 colon, with DMS 114 small cell lung, in the test on DMS 273 small cell lung, in the test on HOP-18 NSCLC and with KM20L2 colon was > 100 µM in each case. Moreover, the TGI with LXFL 529 NSCLC, with M19-MEL melanoma, in the test on RXF-631 renal and with SNB-78 CNS was > 100 µM each time.

For `Nc1c(C(=O)Nc2ccc(C3=NCCN3)cc2)cccc1C(=O)Nc1ccc(C2=NCCN2)cc1`, the TGI in the test with DLD-1 colon, with DMS 114 small cell lung, with DMS 273 small cell lung, in the test with HOP-18 NSCLC, in the test with KM20L2 colon and with M19-MEL melanoma was > 100 µM in each case. Also, the TGI in the test on P388 leukemia, in the test on P388/ADR leukemia, in the test on SN12K1 renal, with SNB-78 CNS and with XF 498 CNS was > 100 µM throughout.

For `O=C(NC1C=Nc2ccc([N+](=O)[O-])cc2NC1=O)c1cc(Cl)cc([N+](=O)[O-])c1` (stereo not drawn), the TGI in the test with DLD-1 colon was > 100 µM; with DMS 114 small cell lung, 84.2 µM; in the test with DMS 273 small cell lung, > 100 µM; in the test with KM20L2 colon it was > 100 µM; in the test on LXFL 529 NSCLC, > 100 µM; in the test with M19-MEL melanoma it was > 100 µM. Besides, the TGI in the test on SNB-78 CNS and in the test with XF 498 CNS was > 100 µM throughout.

Turning to `C[n+]1c2ccccc2c(NC(CS)C(=O)O)c2ccccc21` (stereo not drawn), the TGI is > 100 µM in the test with 786-0 renal; > 100 µM with DLD-1 colon; 95.8 µM in the test with DMS 114 small cell lung; 89.9 µM in the test on DMS 273 small cell lung; > 100 µM in the test with HOP-18 NSCLC; > 100 µM in the test with KM20L2 colon. Moreover, the TGI in the test on LXFL 529 NSCLC is > 100 µM; with M19-MEL melanoma, > 100 µM; in the test with RXF-631 renal, > 100 µM; in the test on SNB-78 CNS, > 100 µM; in the test with XF 498 CNS, 33.9 µM.

For `CC(C)(C)NCC(O)c1ccc(O)c(CO)n1` (stereo not drawn), the TGI with 786-0 renal is > 100 µM.

As for `Cc1ccc(N=Nc2ccc(N)cc2C)c(S(N)(=O)=O)c1`, in the test on 786-0 renal, the TGI was > 100 µM.

For `Oc1ccc(Cc2nccc3cc(O)c(O)cc23)cc1O`, in the test on 786-0 renal, the TGI is > 100 µM.

For `CC(C)(C)C(=O)CP(=O)(O)O`, in the test on 786-0 renal, the TGI was > 100 µM.

In the case of `C[n+]1ccc(Nc2ccc(NC(=O)c3ccc(Nc4cc[n+](C)c5ccc([N+](=O)[O-])cc45)cc3[N+](=O)[O-])cc2)cc1`, the TGI in the test with 786-0 renal is 77.4 µM; in the test on DLD-1 colon, > 100 µM; in the test on DMS 114 small cell lung, 27.2 µM and 41.5 µM; with DMS 273 small cell lung it was > 100 µM; with HOP-18 NSCLC it was 50.4 µM and 59.5 µM; in the test on KM20L2 colon, > 100 µM. The TGI is 50.8 µM in the test with LXFL 529 NSCLC; 68 µM and 61 µM with M19-MEL melanoma; > 35.1 µM with P388 leukemia; > 54.2 µM and 17.2 µM in the test on P388/ADR leukemia; > 100 µM in the test on SN12K1 renal; > 100 µM in the test with SNB-78 CNS. For the same compound, the TGI in the test on XF 498 CNS was 66.9 µM and > 63.2 µM. Further, the GI50 was 32.9 µM and 12 µM in the test on P388/ADR leukemia; 42.3 µM and > 100 µM in the test with SNB-78 CNS.
